In brackets after ≈: the same amount, converted by molar mass. Where a name gives a salt, the structure may show the parent alone. Read-outs that look alike come from different tables or passages of the source.
Test system: WT Mtb Erdman strain
Assay: Microplate Alamar Blue Assay (MABA)
Assay type: cell-based
Settings: Mycobacterium tuberculosis; for MIC50: read-out: MABA MIC50; for MIC90: read-out: MABA MIC90
[1] = concentration that inhibits mycobacterial survival by 50%, Middlebrook 7H9 media, 7 days at 37° C., resazurin 24 hours
[2] = concentration that inhibits mycobacterial survival by 90%, Middlebrook 7H9 media, 7 days at 37° C., resazurin 24 hours

Row | SMILES | MIC50 [1] [µM] | MIC90 [2] [µM] | MIC50 [µM] | MIC90 [µM]
1 | CCCCNc1nc(CC)nc2sc(C)cc12 [Example 0728, N-butyl-2-ethyl-6-methylthieno[2,3-d]pyrimidin-4-amine] | 0.182 (≈ 0.0454 µg/mL) | 0.524 (≈ 0.131 µg/mL) |  | 
2 | Cc1nc(NCc2ccccc2)c2c(C)c(C)sc2n1 [Example 0795, N-Benzyl-2,5,6-trimethylthieno[2,3-d]pyrimidin-4-amine] | 25.4 (≈ 7.2 µg/mL) | 28.4 (≈ 8.05 µg/mL) |  | 
3 | CCCCNc1nc(C)nc2sc(C)c(C)c12 [Example 0796, N-butyl-2,5,6-trimethylthieno[2,3-d]pyrimidin-4-amine trifluoroacetate] |  |  | > 50 | > 50
4 | Cc1nc(Nc2ccccc2)c2c(C)c(C)sc2n1 [Example 0797, 2,5,6-Trimethyl-N-phenylthieno[2,3-d]pyrimidin-4-amine] | > 50 | > 50 |  | 
5 | Cc1nc(NCCc2ccccc2)c2c(C)c(C)sc2n1 [Example 0798, 2,5,6-Trimethyl-N-(2-phenylethyl)thieno[2,3-d]pyrimidin-4-amine] | 27.4 (≈ 8.15 µg/mL) | 32.9 (≈ 9.79 µg/mL) |  | 
6 | CCc1nc(NC(C(=O)O)C(C)C)c2cc(C)sc2n1 (stereo not drawn) [Example 0851, 2-({2-ethyl-6-methylthieno[2,3-d]pyrimidin-4-yl}amino)-3-methylbutanoic acid] | > 50 | > 50 |  | 
7 | CCc1nc(NCCCN(C)C)c2cc(C)sc2n1 [Example 0935, [3-({2-ethyl-6-methylthieno[2,3-d]pyrimidin-4-yl}amino)propyl]dimethylamine] | > 50 | > 50 |  | 
8 | CCc1nc(NCCCC(F)(F)F)c2cc(C)sc2n1 [Example 1020, 2-Ethyl-6-methyl-N-(4,4,4-trifluorobutyl)thieno[2,3-d]pyrimidin-4-amine] | 0.116 (≈ 0.0352 µg/mL) | 0.163 (≈ 0.0494 µg/mL) |  | 
9 | CCc1nc(NCCCc2ccccc2)c2cc(C)sc2n1 [Example 1023, 2-Ethyl-6-methyl-N-(3-phenylpropyl)thieno[2,3-d]pyrimidin-4-amine] | 0.0266 (≈ 0.00828 µg/mL) | 0.108 (≈ 0.0336 µg/mL) |  | 
10 | Cc1cc2c(NC3CC3)nc(-c3ccccc3)nc2s1 [Example 1062, N-Cyclopropyl-6-methyl-2-phenyl-thieno[2,3-d]pyrimidin-4-amine] | 2.88 (≈ 0.81 µg/mL) | 6.01 (≈ 1.69 µg/mL) |  | 
11 | Cc1cc2c(NC3CC3)nc(Cc3ccc(F)cc3)nc2s1 [Example 1063, N-Cyclopropyl-2-[(4-fluorophenyl)methyl]-6-methyl-thieno[2,3-d]pyrimidin-4-amine] | 21 (≈ 6.58 µg/mL) | 41.7 (≈ 13.1 µg/mL) |  | 
12 | CCc1nc(NC2CC2)c2oc3ccccc3c2n1 [Example 1142, N-cyclopropyl-2-ethyl-benzofuro[3,2-d]pyrimidin-4-amine] | 8.37 (≈ 2.12 µg/mL) | 24.8 (≈ 6.28 µg/mL) |  | 
13 | CCc1nc(NC2CC2)c2cc(Br)sc2n1 [Example 1146, 6-Bromo-N-cyclopropyl-2-ethyl-thieno[2,3-d]pyrimidin-4-amine] | 5.98 (≈ 1.78 µg/mL) | 13.8 (≈ 4.12 µg/mL) |  | 
14 | CCc1nc(NC2CC2)c2cc(-c3ccccc3)sc2n1 [Example 1150, N-Cyclopropyl-2-ethyl-6-phenyl-thieno[2,3-d]pyrimidin-4-amine] | 21.1 (≈ 6.23 µg/mL) | 23.1 (≈ 6.82 µg/mL) |  | 
15 | Cc1nc(NC2CC2)c2oc3ccccc3c2n1 [Example 1151, N-Cyclopropyl-2-methyl-benzofuro[3,2-d]pyrimidin-4-amine] | 11.1 (≈ 2.66 µg/mL) | 33.9 (≈ 8.11 µg/mL) |  | 
16 | C=C(C)c1cc2c(NC3CC3)nc(CC)nc2s1 [Example 1154, N-Cyclopropyl-2-ethyl-6-(prop-1-en-2-yl)thieno[2,3-d]pyrimidin-4-amine] | 45.9 (≈ 11.9 µg/mL) | > 50 |  | 
17 | CCc1nc(NC2CC2)c2cc(C3CC3)sc2n1 [Example 1161, N,6-Dicyclopropyl-2-ethyl-thieno[2,3-d]pyrimidin-4-amine] | 31.3 (≈ 8.12 µg/mL) | 36.3 (≈ 9.42 µg/mL) |  | 

Row | SMILES | MIC50 [1] [µM] | MIC90 [2] [µM] | MIC50 [µM] | MIC90 [µM]
18 | CCCCNc1nc(CC)nc2sccc12 [Example 1176, N-butyl-2-ethyl-thieno[2,3-d]pyrimidin-4-amine] | 3.8 (≈ 0.894 µg/mL) | 14.4 (≈ 3.39 µg/mL) |  | 
19 | CCc1nc(NC2CC2)c2cc(C(F)(F)F)sc2n1 [Example 1177, N-Cyclopropyl-2-ethyl-6-(trifluoromethyl)thieno[2,3-d]pyrimidin-4-amine] | 30.8 (≈ 8.85 µg/mL) | > 50 |  | 
20 | CCc1nc(NC2CC2)c2cc(Cl)sc2n1 [Example 1181, 6-Chloro-N-cyclopropyl-2-ethyl-thieno[2,3-d]pyrimidin-4-amine] | 3.06 (≈ 0.776 µg/mL) | 7.64 (≈ 1.94 µg/mL) |  | 
21 | Cc1nc(NCCCc2ccccc2)c2oc3ccccc3c2n1 [Example 1299, 2-Methyl-N-(3-phenylpropyl)benzofuro[3,2-d]pyrimidin-4-amine] | 0.128 (≈ 0.0406 µg/mL) | 0.188 (≈ 0.0597 µg/mL) |  | 
22 | CCc1nc(NCCCc2ccccc2)c2oc3ccccc3c2n1 [Example 1300, 2-Ethyl-N-(3-phenylpropyl)benzofuro[3,2-d]pyrimidin-4-amine] | 0.164 (≈ 0.0544 µg/mL) | 0.389 (≈ 0.129 µg/mL) |  | 
23 | CCCCNc1nc(CC)nc2c1oc1ccccc12 [Example 1301, N-Butyl-2-ethylbenzofuro[3,2-d]pyrimidin-4-amine] | 3.8 (≈ 1.02 µg/mL) | 8.97 (≈ 2.42 µg/mL) |  | 
24 | CCc1nc(NCc2ccc(Cl)cc2)c2cc(C)sc2n1 [Example 1302, N-(4-Chlorobenzyl)-2-ethyl-6-methylthieno[2,3-d]pyrimidin-4-amine] | 2.63 (≈ 0.836 µg/mL) | 5.54 (≈ 1.76 µg/mL) |  | 
25 | CCc1nc(NCc2ccccc2)c2cc(C)sc2n1 [Example 1303, N-Benzyl-2-ethyl-6-methylthieno[2,3-d]pyrimidin-4-amine] | 10.6 (≈ 3 µg/mL) | 20.8 (≈ 5.89 µg/mL) |  | 
26 | CCc1nc(Nc2ccccc2)c2cc(C)sc2n1 [Example 1304, 2-Ethyl-6-methyl-N-phenylthieno[2,3-d]pyrimidin-4-amine] | 25.2 (≈ 6.79 µg/mL) | 41.6 (≈ 11.2 µg/mL) |  | 
27 | CCc1nc(NCCCc2ccccc2)c2ccsc2n1 [Example 1305, 2-Ethyl-N-(3-phenylpropyl)thieno[2,3-d]pyrimidin-4-amine] | 0.113 (≈ 0.0336 µg/mL) | 0.145 (≈ 0.0431 µg/mL) |  | 
28 | CCc1nc(NCCc2ccccc2)c2cc(C)sc2n1 [Example 1306, 2-Ethyl-6-methyl-N-phenethylthieno[2,3-d]pyrimidin-4-amine] | 0.125 (≈ 0.0372 µg/mL) | 0.183 (≈ 0.0544 µg/mL) |  | 
29 | CCc1nc(NCCc2ccc(Cl)cc2Cl)c2cc(C)sc2n1 [Example 1307, N-[2-(2,4-Dichlorophenyl)ethyl]-2-ethyl-6-methylthieno[2,3-d]pyrimidin-4-amine] | 0.526 (≈ 0.193 µg/mL) | 1.18 (≈ 0.432 µg/mL) |  | 
30 | CCc1nc(NCc2ccccn2)c2cc(C)sc2n1 [Example 1308, 2-Ethyl-6-methyl-N-(2-pyridylmethyl)thieno[2,3-d]pyrimidin-4-amine] | 21.6 (≈ 6.14 µg/mL) | 31.6 (≈ 8.99 µg/mL) |  | 
31 | Cc1cc2c(NCCCc3ccccc3)nc(C(F)(F)F)nc2s1 [Example 1536, 6-Methyl-N-(3-phenylpropyl)-2-(trifluoromethyl)thieno[2,3-d]pyrimidin-4-amine] | 0.386 (≈ 0.136 µg/mL) | 0.479 (≈ 0.168 µg/mL) |  | 
32 | FC(F)(F)c1nc(NCCCc2ccccc2)c2ccsc2n1 [Example 1537, N-(Phenylpropyl)-2-(trifluoromethyl)thieno[2,3-d]pyrimidin-4-amine] | 0.439 (≈ 0.148 µg/mL) | 1.14 (≈ 0.385 µg/mL) |  | 
33 | Cc1cc2c(NCCCc3ccccc3)nc(C(F)(F)C(F)(F)F)nc2s1 [Example 1538, 6-Methyl-2-(1,1,2,2,2-pentafluoroethyl)-N-(3-phenylpropyl)thieno[2,3-d]pyrimidin-4-amine] | 0.597 (≈ 0.24 µg/mL) | 1.1 (≈ 0.442 µg/mL) |  | 

— patent US20220117968A1, “THIENO[2,3-D)PYRIMIDINES AND BENZOFURO(3,2-D)PYRIMIDINES AS ANTIMICROBIAL AGENTS” (Saint Louis University, priority 2017, published 2022)
